pEC50, pKd, pKi: −log10 of the molar value. Like-named read-outs stand apart in the source and are kept apart here.
What was measured:
[1] = target: T1, human 5-hydroxytryptamine-2C (h5-HT2C) receptor (Homo sapiens, UniProt P28335); assay: [125I]DOI binding affinity at h5-HT2C receptor, CHO cell membranes
T1 construct: expressed in transfected cells; host or cells: CHO (Chinese Hamster Ovary) cells; membranes
T1 sequence (P28335 33-458): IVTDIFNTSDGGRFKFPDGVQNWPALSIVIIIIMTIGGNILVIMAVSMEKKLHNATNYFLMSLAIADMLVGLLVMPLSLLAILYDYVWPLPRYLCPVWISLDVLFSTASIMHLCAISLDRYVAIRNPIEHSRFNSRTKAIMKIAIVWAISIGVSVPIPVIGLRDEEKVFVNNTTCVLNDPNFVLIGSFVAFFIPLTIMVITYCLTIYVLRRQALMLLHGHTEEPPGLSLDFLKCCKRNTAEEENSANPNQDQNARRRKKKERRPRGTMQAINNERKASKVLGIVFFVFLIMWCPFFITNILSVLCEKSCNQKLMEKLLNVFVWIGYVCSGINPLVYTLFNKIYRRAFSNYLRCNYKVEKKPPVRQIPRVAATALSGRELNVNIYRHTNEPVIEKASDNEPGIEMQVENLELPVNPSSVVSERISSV

[2] = target: T2, human 5-HT2C receptor (Homo sapiens, UniProt P28335); assay: 5-HT2C receptor-stimulated calcium mobilization (FLIPR) in CHO cells; format: cell-based; settings: for Emax: CHO, read-out: 5-HT2C Function Emax (%); for pEC50: calcium mobilization, CHO cells expressing human 5-HT2C, read-out: 5-HT2C Function EC50
T2 sequence (P28335 33-458): T1 sequence (P28335 33-458)

[3] = [125I]DOI displacement, CHO membranes expressing h5-HT2C, read-out: 5-HT2C Affinity Ki
[4] = percentage of the response to a maximally effective concentration of 5-HT

## NCC1Cc2ccc3c(c2O1)CCC3 (racemic) [Example 1, (±)-1-(3,6,7,8-tetrahydro-2H-indeno[4,5-b]furan-2-yl)methanamine]
[1]; [3]
  pKi: 8.00
[2]; [4]
  Emax: 90%
[2]
  pEC50: 7.51

## NCC1Cc2ccc3c(c2O1)CCCC3 (racemic) [Example 4, (±)-1-(2,3,6,7,8,9-hexahydronaphtho[1,2-b]furan-2-yl)methanamine]
[1]; [3]
  pKi: 8.10
[2]; [4]
  Emax: 80%
[2]
  pEC50: 7.12

## Cc1cc2c(c3c1CCC3)OC(CN)C2 (racemic) [Example 7, (±)-1-(5-methyl-3,6,7,8-tetrahydro-2H-indeno[4,5-b]furan-2-yl)methanamine]
[1]; [3]
  pKi: 8.22
[2]; [4]
  Emax: 95%
[2]
  pEC50: 7.72

## NCC1Cc2ccc3ccccc3c2O1 (racemic) [Example 10, (±)-1-(2,3-dihydronaphtho[1,2-b]furan-2-yl)methanamine]
[1]; [3]
  pKi: 7.54
[2]; [4]
  Emax: 90%
[2]
  pEC50: 7.70

## NCC1Cc2cc3c(cc2O1)CCCC3 (racemic) [Example 13, (±)-1-(2,3,5,6,7,8-hexahydronaphtho[2,3-b]furan-2-yl)methanamine]
[1]; [3]
  pKi: 7.00

## NCC1Cc2c(ccc3c2CCCC3)O1 (racemic) [Example 14, (±)-1-(1,2,6,7,8,9-hexahydronaphtho[2,1-b]furan-2-yl)methanamine]
[1]; [3]
  pKi: 7.72
[2]; [4]
  Emax: 100%
[2]
  pEC50: 7.47

## COc1cc2c(c3c1C1CCC3CC1)OC(CN)C2 (racemic) [Example 19, (±)-1-(5-methoxy-2,3,6,7,8,9-hexahydro-6,9-ethanonaphtho[1,2-b]furan-2-yl)methanamine]
[1]; [3]
  pKi: 8.15
[2]; [4]
  Emax: 100%
[2]
  pEC50: 7.60

## NCC1Cc2cc(Cl)c3ccccc3c2O1 (racemic) [Example 23, (±)-1-(5-chloro-2,3-dihydronaphtho[1,2-b]furan-2-yl)methanamine]
[1]; [3]
  pKi: 8.30
[2]; [4]
  Emax: 90%
[2]
  pEC50: 7.55

## CNCC1Cc2cc(Cl)c3ccccc3c2O1 (racemic) [Example 24, (±)-1-(5-chloro-2,3-dihydronaphtho[1,2-b]furan-2-yl)-N-methylmethanamine]
[1]; [3]
  pKi: 8.15
[2]; [4]
  Emax: 60%
[2]
  pEC50: 7.04

## NCC1Cc2c(Cl)cc3c(c2O1)CCC3 (racemic) [Example 25, (±)-1-(4-chloro-3,6,7,8-tetrahydro-2H-indeno[4,5-b]furan-2-yl)methanamine]
[1]; [3]
  pKi: 7.92
[2]; [4]
  Emax: 80%
[2]
  pEC50: 8.36

## NCC1Cc2cc(Cl)c3c(c2O1)CCC3 (racemic) [Example 29, (±)-1-(5-chloro-3,6,7,8-tetrahydro-2H-indeno[4,5-b]furan-2-yl)methanamine]
[1]; [3]
  pKi: 8.40
[2]; [4]
  Emax: 100%
[2]
  pEC50: 8.24

## COc1cc2c(c3c1C1CCC3C1)OC(CN)C2 (single isomer, unassigned) [Example 16, (9-methoxy-4-oxatetracyclo[9.2.1.0^2,10.0^3,7]tetradeca-2,7,9-trien-5-yl)methylamine]
[1]; [3]
  pKi: 7.07

## COc1cc2c(c3c1C1CCC3C1)OC(CN)C2 (single isomer, unassigned) [Example 17, (9-methoxy-4-oxatetracyclo[9.2.1.0^2,10.0^3,7]tetradeca-2,7,9-trien-5-yl)methylamine]
[1]; [3]
  pKi: 8.10
[2]; [4]
  Emax: 100%
[2]
  pEC50: 8.00

## COc1cc2c(c3c1C1CCC3C1)OC(CN)C2 (single isomer, unassigned) [Example 18, (9-methoxy-4-oxatetracyclo[9.2.1.0^2,10.0^3,7]tetradeca-2,7,9-trien-5-yl)methylamine]
[1]; [3]
  pKi: 7.09

## C[C@@H](N)[C@H]1Cc2ccc3c(c2O1)CCC3 (single isomer, unassigned) [Example 22, (2R*)-1-[(2R*)-3,6,7,8-tetrahydro-2H-indeno[4,5-b]furan-2-yl]ethylamine]
[1]; 5-HT2C Affinity Ki (nM), [125I]DOI displacement, CHO membranes expressing h5-HT2C
  Ki: 13 nM
[2]
  Emax: 80%
  pEC50: 7.82

## NCC1Cc2ccc3c(c2O1)CCC3 (single isomer, unassigned; (+)) [Example 2, (+)-1-(3,6,7,8-tetrahydro-2H-indeno[4,5-b]furan-2-yl)methanamine]
[1]; [3]
  pKi: 7.55
[2]
  pEC50: 8.10
[2]; [4]
  5-HT2C Function Emax (%): 75%

## NCC1Cc2ccc3c(c2O1)CCCC3 (single isomer, unassigned; (+)) [Example 5, (+)-1-(2,3,6,7,8,9-hexahydronaphtho[1,2-b]furan-2-yl)methanamine]
[1]; [3]
  pKi: 7.77
[2]
  pEC50: 7.42
[2]; [4]
  5-HT2C Function Emax (%): 70%

## Cc1cc2c(c3c1CCC3)OC(CN)C2 (single isomer, unassigned; (+)) [Example 8, (+)-1-(5-methyl-3,6,7,8-tetrahydro-2H-indeno[4,5-b]furan-2-yl)methanamine]
[1]; [3]
  pKi: 8.22
[2]; [4]
  Emax: 100%
[2]
  pEC50: 8.08

## NCC1Cc2ccc3ccccc3c2O1 (single isomer, unassigned; (+)) [Example 11, (+)-1-(2,3-dihydronaphtho[1,2-b]furan-2-yl)methanamine]
[1]; [3]
  pKi: 7.82
[2]
  pEC50: 8.24
[2]; [4]
  5-HT2C Function Emax (%): 65%

## COc1cc2c(c3c1C1CCC3CC1)OC(CN)C2 (single isomer, unassigned; (+)) [Example 20, (+)-1-(5-methoxy-2,3,6,7,8,9-hexahydro-6,9-ethanonaphtho[1,2-b]furan-2-yl)methanamine]
[1]; [3]
  pKi: 7.66
[2]
  pEC50: 7.04
[2]; [4]
  5-HT2C Function Emax (%): 60%

## NCC1Cc2c(Cl)cc3c(c2O1)CCC3 (single isomer, unassigned; (+)) [Example 27, (+)-1-(4-chloro-3,6,7,8-tetrahydro-2H-indeno[4,5-b]furan-2-yl)methanamine]
[1]; [3]
  pKi: 8.40
[2]
  pEC50: 7.25
[2]; [4]
  5-HT2C Function Emax (%): 60%

## NCC1Cc2cc(Cl)c3c(c2O1)CCC3 (single isomer, unassigned; (+)) [Example 31, (+)-1-(5-chloro-3,6,7,8-tetrahydro-2H-indeno[4,5-b]furan-2-yl)methanamine]
[1]; [3]
  pKi: 9.00
[2]
  pEC50: 8.00
[2]; [4]
  5-HT2C Function Emax (%): 40%

## NCC1Cc2ccc3c(c2O1)CCC3 (single isomer, unassigned; (-)) [Example 3, (−)-1-(3,6,7,8-tetrahydro-2H-indeno[4,5-b]furan-2-yl)methanamine]
[1]; [3]
  pKi: 8.30
[2]
  pEC50: 9.05
[2]; [4]
  5-HT2C Function Emax (%): 100%

## NCC1Cc2ccc3c(c2O1)CCCC3 (single isomer, unassigned; (-)) [Example 6, (−)-1-(2,3,6,7,8,9-hexahydronaphtho[1,2-b]furan-2-yl)methanamine]
[1]; [3]
  pKi: 7.96
[2]
  pEC50: 8.52
[2]; [4]
  5-HT2C Function Emax (%): 100%

## Cc1cc2c(c3c1CCC3)OC(CN)C2 (single isomer, unassigned; (-)) [Example 9, (−)-1-(5-methyl-3,6,7,8-tetrahydro-2H-indeno[4,5-b]furan-2-yl)methanamine]
[1]; [3]
  pKi: 7.96
[2]
  pEC50: 7.96
[2]; [4]
  5-HT2C Function Emax (%): 100%

## NCC1Cc2ccc3ccccc3c2O1 (single isomer, unassigned; (-)) [Example 12, (−)-1-(2,3-dihydronaphtho[1,2-b]furan-2-yl)methanamine]
[1]; [3]
  pKi: 7.80
[2]
  pEC50: 8.70
[2]; [4]
  5-HT2C Function Emax (%): 90%

## CSc1ccc2c(c1)C(N1CCN(C)CC1)Cc1ccccc1S2 (centres unmarked) [Methiothepin, reference compound]
[1]; reference compounds, [125I]DOI displacement, CHO membranes expressing h5-HT2C, read-out: Ki (95% confidence interval)
  pKi: 8.34

## COc1cc(CC(C)N)c(OC)cc1I (centres unmarked) [[^125I] DOI, reference compound]
[1]; saturation binding with increasing concentrations of [125I]DOI, read-out: dissociation constant, KD
  pKd: 9.40

Source: patent publication US7728155B2, “Dihydrobenzofuranyl alkanamines and methods for using same as cns agents” (Wyeth LLC, priority 2003, dated 2010)
